In one series the test system is Normal Human Fibroblast. Briefly: Toxicity in healthy cell lines. The format is cell-based. The following applies: read-out: IC50 Normal Human Fibroblast. The protocol: (§1) The cytotoxicity of exemplary compounds of the application was tested in multiple cell lines including MV-4-11, MOLM-13, MCF-7, MRC9, K562 and MM.1S. The therapeutic index was evaluated by determining the toxicity of the exemplary compounds in healthy cell lines including fibroblasts and HUVEC.

The subject of the next series is HUVEC. Briefly: Toxicity in healthy cell lines. The format is cell-based. The following applies: Homo sapiens, read-out: IC50 HUVEC. The procedure: as §1
The subject of another series is K562. Briefly: Cytotoxicity in cell lines. The format is cell-based. The following applies: Homo sapiens. The procedure:
as §1

The test system of a further series is MOLM-13. Briefly: Cytotoxicity in cell lines. Format: cell-based. The following applies: Homo sapiens. The protocol:
as §1

A further series concerns MV-4-11. The experiment in a line: Cytotoxicity in cell lines. Format: cell-based. The protocol:
as §1

Series [1] can be described thus: Kinetic solubility by analytical HPLC. The format is physicochemical. The following applies: PBS with 5% (v/v) DMSO, aqueous with cosolvent or surfactant or cyclodextrin, kinetic from dmso stock; PBS + 5% DMSO; initial concentration 300 μM; read-out: Saturation Concentration. The protocol:
The initial concentration of each exemplary compound was 300 μM.

The test system of a further series is panel of 97 kinases. The experiment in a line: Kinome screen. The format is biochemical. The following applies: kinase screen.
For a further series, the system named is MRC9. Briefly: Cytotoxicity in cell lines. The format is cell-based. The following applies: Table 5. The procedure: as §1
The subject of a further series is MM.1S. Briefly: Cytotoxicity in cell lines. Format: cell-based. The following applies: Homo sapiens, MM1.S; Table 4. The procedure:
as §1

A further series deals with T1, HDAC6 (Homo sapiens, UniProt Q9UBN7).
T1 sequence (Q9UBN7 1-1215): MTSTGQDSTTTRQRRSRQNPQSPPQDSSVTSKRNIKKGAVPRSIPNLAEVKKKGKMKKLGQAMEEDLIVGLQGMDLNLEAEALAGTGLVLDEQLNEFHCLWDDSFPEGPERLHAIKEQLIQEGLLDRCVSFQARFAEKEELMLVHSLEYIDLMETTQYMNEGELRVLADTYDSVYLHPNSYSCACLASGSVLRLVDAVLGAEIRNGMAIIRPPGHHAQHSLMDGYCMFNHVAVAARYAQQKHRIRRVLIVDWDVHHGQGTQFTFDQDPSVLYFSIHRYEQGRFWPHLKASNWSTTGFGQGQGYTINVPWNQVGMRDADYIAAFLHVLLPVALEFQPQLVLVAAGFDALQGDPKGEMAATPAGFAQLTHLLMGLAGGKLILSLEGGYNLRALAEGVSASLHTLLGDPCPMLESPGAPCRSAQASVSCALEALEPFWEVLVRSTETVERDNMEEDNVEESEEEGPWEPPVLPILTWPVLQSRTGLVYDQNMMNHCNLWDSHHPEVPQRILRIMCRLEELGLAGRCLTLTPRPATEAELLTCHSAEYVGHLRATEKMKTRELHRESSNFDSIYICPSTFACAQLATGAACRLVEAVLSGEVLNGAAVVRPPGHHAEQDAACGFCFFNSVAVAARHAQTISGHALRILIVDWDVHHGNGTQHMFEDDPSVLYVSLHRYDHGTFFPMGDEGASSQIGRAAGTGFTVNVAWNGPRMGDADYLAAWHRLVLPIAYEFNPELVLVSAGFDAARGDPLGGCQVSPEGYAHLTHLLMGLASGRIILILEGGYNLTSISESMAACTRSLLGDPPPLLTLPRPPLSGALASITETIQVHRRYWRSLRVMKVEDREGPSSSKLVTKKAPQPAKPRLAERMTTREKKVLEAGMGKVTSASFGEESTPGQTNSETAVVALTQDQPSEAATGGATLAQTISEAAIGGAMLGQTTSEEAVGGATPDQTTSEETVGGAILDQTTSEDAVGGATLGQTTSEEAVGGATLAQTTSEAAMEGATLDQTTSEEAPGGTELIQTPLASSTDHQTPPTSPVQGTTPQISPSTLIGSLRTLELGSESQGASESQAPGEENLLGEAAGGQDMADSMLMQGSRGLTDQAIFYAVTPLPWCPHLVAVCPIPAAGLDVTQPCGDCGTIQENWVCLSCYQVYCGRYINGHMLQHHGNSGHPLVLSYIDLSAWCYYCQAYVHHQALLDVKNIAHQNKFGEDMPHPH
Briefly: in vitro activity-based HDAC assay. The format is biochemical. The following applies: ranges given; read-out: IC50 for HDAC6. The protocol: The exemplary compounds of Formula I and structurally related compounds were synthesized to assess their structure-activity relationship. […] The IC50 values for each exemplary compound were used to calculate the selectivity of the exemplary compounds for Formula I to HDAC6. The selectivity of each exemplary compound for HDAC6 was determined from examining the potency of HDAC6 in relation to the highest binding affinity of the other HDAC isoforms tested.

For another series, the system named is HeLa cells. Briefly: Immunofluorescence analysis of α-tubulin and histone H3 acetylation. The format is cell-based. The following applies: 6 h treatment. An excerpt:
Similar analysis is shown for exemplary compound I-34 in FIG. 19.

The mark [2] stands for this setting: K562, Table 4, read-out: IC50 K562.
The mark [3] stands for this setting: MOLM-13, Table 4, read-out: IC50 MOLM-13.
The mark [4] stands for this setting: Homo sapiens, MV4-11, Table 4, read-out: IC50 MV-411.
Setting [5] is: Homo sapiens, MV4-11, Table 5, read-out: IC50 MV-411.
[6] abbreviates: K562, Table 5, read-out: IC50 K562.
Setting [7] is: MOLM-13, Table 5, read-out: IC50 MOLM-13.

The text below walks through data of patent US20220169598A1, “HALOGENATED PHENYLSULFONAMIDE HYDROXAMIC ACID COMPOUNDS, COMPOSITIONS AND USES THEREOF AS SELECTIVE HDAC6 INHIBITORS” (2681603 ONTARIO INC., priority 2019, published 2022).

Read-outs that look alike come from different tables or passages of the source.

As for `O=C(NO)c1ccc(CN(Cc2cccnc2)S(=O)(=O)c2cc(F)c(F)c(F)c2F)c(F)c1` [Compound I-30, 3-fluoro-N-hydroxy-4-((2,3,4,5-tetrafluoro-N-(pyridin-3-ylmethyl)phenylsulfonamido)methyl)benzamide], the IC50 is 6.1 µM in the series on Normal Human Fibroblast (Table 4, healthy cells); 4.1 µM with HUVEC (Table 4, healthy cells); 9.3 µM with K562 (setting [2]); 2.9 µM with MOLM-13 (setting [3]); 0.607 µM in the series on MV-4-11 (setting [4]). For the same compound, the solubility kinetic in series [1] turned out to be 46 ± 4.4 µM.
For the compound `CC(C)N(Cc1ccc(C(=O)NO)cc1)S(=O)(=O)c1cc(F)c(F)c(F)c1F` [Compound I-12, N-hydroxy-4-((2,3,4,5-tetrafluoro-N-isopropylphenylsulfonamido)methyl)benzamide], the “inhibitory activity on a panel of 97 kinases” value with panel of 97 kinases is listed as “limited to no inhibitory activity”. Further, the solubility kinetic in series [1] stood at 74.5 ± 3 µM.
In turn, `O=C(/C=C/c1ccc(CN(C2CC2)S(=O)(=O)c2c(F)c(F)c(F)c(F)c2F)cc1)NO` [Compound I-56] gave an IC50 in the series on MRC9 above 50 µM.
For `O=C(NO)c1ccc(CN(CCc2ccccc2F)S(=O)(=O)c2cc(F)c(F)c(F)c2F)cc1` [Compound I-21, N-hydroxy-4-((2,3,4,5-tetrafluoro-N-(2-fluorophenethyl)phenylsulfonamido)methyl)benzamide], the IC50 came out at 7.9 µM with K562 (setting [2]), 1.7 µM with MOLM-13 (setting [3]) and 0.478 µM with MV-4-11 (setting [4]).
Consider `O=C(NO)c1ccc(CN(C2CCCC2)S(=O)(=O)c2cc(F)c(F)c(F)c2F)cc1` [Compound I-51, 4-(((N-cyclopentyl-2,3,4,5-tetrafluorophenyl)sulfonamido)methyl)-N-hydroxybenzamide], for which the results for the IC50 with MM.1S and in the series on MV-4-11 (setting [4]) were 2.7 µM and 2.8 µM, respectively.
Take `CC(C)N(Cc1cc(F)c(C(=O)NO)cc1F)S(=O)(=O)c1cc(F)c(F)c(F)c1F` [Compound I-52, 2,5-difluoro-N-hydroxy-4-(((2,3,4,5-tetrafluoro-N-isopropylphenyl)sulfonamido)methyl)benzamide]: the results for the IC50 with MM.1S and with MV-4-11 (setting [4]) were 0.4 µM and 1 µM, respectively.
With `O=C(NO)c1ccc(CN(Cc2cccnc2F)S(=O)(=O)c2cc(F)c(F)c(F)c2F)cc1` [Compound I-19, N-hydroxy-4-((2,3,4,5-tetrafluoro-N-((2-fluoropyridin-3-yl)methyl)phenylsulfonamido)methyl)benzamide], in the series with K562 (setting [2]), the IC50 turned out to be 5.6 µM.
With `O=C(/C=C/c1ccc(CN(C2CCCC2)S(=O)(=O)c2c(F)c(F)c(F)c(F)c2F)cc1)NO` [Compound I-57, (E)-3-(4-((N-cyclopentyl-2,3,4,5,6-pentafluorophenylsulfonamido)methy)phenyl)-N-hydroxyacrylamide], the figures for the IC50 at HDAC6 and in the series on MRC9 were 0.01 to 0.03 µM and above 50 µM, respectively.
In the case of `CC(C)CN(Cc1ccc(C(=O)NO)cc1)S(=O)(=O)c1cc(F)c(F)c(F)c1F` [Compound I-54, N-hydroxy-4-(((2,3,4,5-tetrafluoro-N-isobutylphenyl)sulfonamido)methyl)benzamide], the IC50 in the series on MM.1S is 0.7 µM; in the series on MV-4-11 (setting [4]) it was 0.5 µM.
Regarding `O=C(/C=C/c1ccc(CN(c2ccccc2)S(=O)(=O)c2cc(F)c(F)c(F)c2F)cc1)NO` [Compound I-66, (E)-N-hydroxy-3-(4-((2,3,4,5-tetrafluoro-N-phenylphenylsulfonamido)methyl)phenyl)acrylamide], the IC50 was 0.01 to 0.03 µM at HDAC6 and 0.84 µM with MV-4-11 (setting [5]).
Take `O=C(/C=C/c1ccc(CN(Cc2cccnc2F)S(=O)(=O)c2cc(F)c(F)c(F)c2F)c(C(F)(F)F)c1)NO` [Compound I-79]: the IC50 was 25.9 µM with K562 (setting [6]), 7.9 µM with MOLM-13 (setting [7]) and 0.329 µM in the series with MV-4-11 (setting [5]).
Regarding `O=C(CCCCCCNC(=O)c1cnc(N(c2ccccc2)c2ccccc2Cl)nc1)NO` [Citarinostat, reference compound], in the series with HeLa cells, the “effect on α-tubulin acetylation (immunofluorescence)” value is “no preferential acetylation on α-tubulin until high concentrations”.
Take `COc1cc(/C=C/C(=O)NO)ccc1CN(Cc1cccnc1F)S(=O)(=O)c1cc(F)c(F)c(F)c1F` [Compound I-77]: the IC50 in the series on K562 (setting [6]) was 72.8 µM; with MOLM-13 (setting [7]), 3.3 µM; with MV-4-11 (setting [5]) it was 1.1 µM.
In the case of `O=C(/C=C/c1ccc(CN(C2CCCC2)S(=O)(=O)c2cc(F)c(F)c(F)c2F)cc1)NO` [Compound I-65, (E)-3-(4-((N-cyclopentyl-2,3,4,5-tetrafluorophenylsulfonamido)methyl)phenyl)-N-hydroxyacrylamide], the IC50 at HDAC6 was 0.15 to 0.2 µM; in the series with MV-4-11 (setting [5]), 2.43 µM; with MV-4-11 (Table 5, read-out: IC50 MV-411) it was 1.94 µM.
For the compound `O=C(NO)c1ccc(CN(Cc2cccnc2F)S(=O)(=O)c2cc(F)c(F)c(F)c2F)c(F)c1` [Compound I-32, 3-fluoro-N-hydroxy-4-((2,3,4,5-tetrafluoro-N-((2-fluoropyridin-3-yl)methyl)phenylsulfonamido)methyl)benzamide], the IC50 in the series with Normal Human Fibroblast (Table 4, healthy cells) was 7.1 µM; in the series on HUVEC (Table 4, healthy cells) it was 5.1 µM; in the series on K562 (setting [2]), 8.6 µM; in the series with MOLM-13 (setting [3]), 1.98 µM; in the series on MV-4-11 (setting [4]) it was 0.389 µM.
`O=C(CCCCCCNC(=O)c1cnc(N(c2ccccc2)c2ccccc2)nc1)NO` [Ricolinostat, reference compound]: the IC50 with Normal Human Fibroblast amounted to 5.7 µM; in the series with HUVEC, 4.9 µM; in the series with K562 (K562, read-out: IC50 K562) it was 12.8 µM; in the series with MOLM-13 (MOLM-13, read-out: IC50 MOLM-13), 6.49 µM; with MV-4-11 (Homo sapiens, MV4-11, read-out: IC50 MV-411) it was 0.656 µM. Besides, the solubility kinetic in series [1] amounted to 26.1 ± 11.3 µM.
In the case of `CC(C)N(Cc1ccc(CC(=O)NO)cc1)S(=O)(=O)c1cc(F)c(F)c(F)c1F` [Compound I-70, N-hydroxy-2-(4-((2,3,4,5-tetrafluoro-N-isopropylphenylsulfonamido)methyl)phenyl)acetamide], the IC50 at HDAC6 is 0.1 to 0.15 µM; in the series on MV-4-11 (setting [5]), 2.5 µM.
Regarding `O=C(/C=C/c1ccc(CN(Cc2cccnc2)S(=O)(=O)c2cc(F)c(F)c(F)c2F)c(C(F)(F)F)c1)NO` [Compound I-80], the IC50 in the series on K562 (setting [6]) worked out at 16.3 µM; in the series with MOLM-13 (setting [7]), 7.6 µM; in the series with MV-4-11 (setting [5]), 0.338 µM.
